Data: patent US10155021B2, “Antimicrobial 4-oxoquinolizines” (Emergent Product Development Gaithersburg Inc., priority 2011, dated 2018)
In brackets after ≈: the same amount, converted by molar mass. Where two headings read alike, the source gives them in different places. Marks after values point to notes of the source that are not given here.

Legend:
[1] = test system: A. baumannii A472; experiment: MIC without and with sub-inhibitory polymyxin B (Example 4); type: cell-based, Acinetobacter baumannii; settings: for MIC: Acinetobacter baumannii, A472, A. baumannii A472, without polymyxin B, read-out: MIC without PB
[2] = test system: A. baumannii A329; experiment: Preliminary MBC without and with sub-inhibitory polymyxin B (Example 4); type: cell-based, Acinetobacter baumannii; settings: for MBC: Acinetobacter baumannii, A329, A. baumannii A329, without polymyxin B, read-out: MBC without PB
[3] = test system: A. baumannii A489; experiment: as above; type: cell-based, Acinetobacter baumannii; settings: for MBC +[…] PB: A. baumannii A489, +[…] polymyxin B; for MBC: Acinetobacter baumannii, A489, A. baumannii A489, without polymyxin B, read-out: MBC without PB
[4] = test system: Acinetobacter sp. (H064200250); experiment: as above; type: cell-based; settings: preliminary MBC; for MBC +[…] PB: +[…] polymyxin B; for MBC: Acinetobacter, without polymyxin B, read-out: MBC without PB
Procedure, shortened: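 Read-out: the minimum concentration at which colonies were reduced by ca. 90% relative to positive control, usually seen as isolated colonies or a clear plate. Plates had been kept 18-20 hours at 37° C beforehand.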

[5] = test system: resistant strains of A. baumannii and one strain of Acinetobacter sp.; experiment: MIC without and with sub-inhibitory polymyxin B, whole panel / MIC ranges (Example 4; also strains not listed separately); type: cell-based; settings: for MIC +0.06 μg/ml PB: +0.06 μg/ml polymyxin B; for MIC without PB/MIC + PB: ratio; for MIC +[…] PB: +[…] polymyxin B; for MIC: Acinetobacter baumannii
[6] = test system: A. baumannii A473; experiment: MIC without and with sub-inhibitory polymyxin B (Example 4); type: cell-based, Acinetobacter baumannii; settings: for MIC: Acinetobacter baumannii, A473, A. baumannii A473, without polymyxin B, read-out: MIC without PB
[7] = test system: A. baumannii A472; experiment: Preliminary MBC without and with sub-inhibitory polymyxin B (Example 4); type: cell-based, Acinetobacter baumannii; settings: for MBC +[…] PB: A. baumannii A472, +[…] polymyxin B; for MBC: Acinetobacter baumannii, A472, A. baumannii A472, without polymyxin B, read-out: MBC without PB
[8] = test system: A. baumannii A 401; experiment: MIC determination for Acinetobacter strains (Example 3); type: cell-based; settings: A401, LEV R, CIP R, AMK R, TET R
[9] = test system: A. baumannii A329; experiment: as above; type: cell-based; settings: LEV R, CIP R, MRP R, IMP R, AMK R, TET R
[10] = Acinetobacter spp. H064200250 (OXA51), 2nd experiment
[11] = Acinetobacter spp. H064200250, 1st experiment

MIC ratio without/with polymyxin B ([1]; A. baumannii A472, ratio MIC without PB to MIC + PB, PB […], 2nd experiment): 32 µg/mL
MIC without PB/MIC + PB ([1]; A. baumannii A472, ratio, PB […], 1st experiment): 64
MIC ([1]; 1st experiment): 16 µg/mL (≈ 53.4 µM)
MIC ([1]; 2nd experiment, visual reading): 8 µg/mL (≈ 26.7 µM)
Range ratios MIC without PB/MIC with PB 01-10-2008 n = 8 ([5]; 1st experiment, 8 strains): 1-64
Range ratios MIC without PB/MIC with PB 14-10-2008 n = 11 ([5]; 2nd experiment, 11 strains): 1-256
MIC +0.06 μg/ml PB ([5]; A. baumannii A14, 1st experiment): 1 µg/mL
MIC +0.06 μg/ml PB ([5]; A. baumannii A14, 2nd experiment, visual reading): 1 µg/mL
MIC without PB/MIC + PB ([5]; A. baumannii A14, PB 0.06 μg/ml, 1st experiment): 1
MIC without PB/MIC + PB ([5]; A. baumannii A14, PB 0.06 μg/ml, 2nd experiment): 1
MIC +[…] PB ([5]; A. baumannii NCTC 13301, 1st experiment): 16 µg/mL (≈ 53.4 µM)
MIC +[…] PB ([5]; A. baumannii NCTC 13301, 2nd experiment, visual reading): 1 µg/mL (≈ 3.34 µM)
MIC without PB/MIC + PB ([5]; A. baumannii NCTC 13301, PB […], 1st experiment): 8
MIC without PB/MIC + PB ([5]; A. baumannii NCTC 13301, PB […], 2nd experiment): 128
MIC ([5]; A. baumannii A14, without polymyxin B, 1st experiment, read-out: MIC without PB): 1 µg/mL (≈ 3.34 µM)
MIC ([5]; A. baumannii A14, without polymyxin B, 2nd experiment, visual reading, read-out: MIC without PB): 1 µg/mL (≈ 3.34 µM)
MIC ([5]; NCTC13301, A. baumannii NCTC 13301, without polymyxin B, 1st experiment, read-out: MIC without PB): 128 µg/mL (≈ 428 µM)
MIC ([5]; NCTC13301, A. baumannii NCTC 13301, without polymyxin B, 2nd experiment, visual reading, read-out: MIC without PB): 128 µg/mL (≈ 428 µM)
MIC ([5]; read-out: MIC range without PB 01-10-2008 n = 8, without polymyxin B, 1st experiment, 8 strains): 1 to 128 µg/mL (≈ 3.34 to 428 µM)
MIC range with PB ([…] MIC) 01-10-2008 n = 8 ([5]; with polymyxin B […] MIC, 1st experiment, 8 strains): <0.125-16 μg/ml
MIC +0.06 μg/ml PB ([6]; A. baumannii A473, +0.06 μg/ml polymyxin B, 2nd experiment, visual reading): 4 µg/mL
MIC without PB/MIC + PB ([6]; A. baumannii A473, ratio, PB 0.06 μg/ml, 2nd experiment): 8
MIC ([6]; 1st experiment): 32 µg/mL (≈ 107 µM)
MIC ([6]; 2nd experiment, visual reading): 32 µg/mL (≈ 107 µM)
MIC [8]: 32 µg/mL (≈ 107 µM)
MIC [9]: 128 µg/mL (≈ 428 µM)
SMILES: C[C@@H](O)[C@H]1C(=O)N2C(C(=O)O)=C(SCCN=CN)C[C@H]12 [Imipenem, reference compound]
MBC +0.06 μg/ml PB ([2]; A. baumannii A329, +0.06 μg/ml polymyxin B, 2nd experiment): 128 µg/mL
MBC ([2]; 1st experiment): 128 µg/mL (≈ 428 µM)
MBC ([2]; 2nd experiment): > 128 µg/mL
MBC +[…] PB ([3]; 1st experiment): 2 µg/mL (≈ 6.68 µM)
MBC +[…] PB ([3]; 2nd experiment): 0.25 µg/mL (≈ 0.835 µM)
MBC ([3]; 1st experiment): 64 µg/mL (≈ 214 µM)
MBC ([3]; 2nd experiment): 64 µg/mL (≈ 214 µM)
MBC +[…] PB [4, 10]: 0.5 µg/mL (≈ 1.67 µM)
MBC +[…] PB [4, 11]: 2 (0.5)* μg/ml
MBC [4, 10]: 8 µg/mL (≈ 26.7 µM)
MBC [4, 11]: 16 µg/mL (≈ 53.4 µM)
MBC +[…] PB ([7]; 1st experiment): 0.25 µg/mL (≈ 0.835 µM)
MBC +[…] PB ([7]; 2nd experiment): 0.25 µg/mL (≈ 0.835 µM)
MBC ([7]; 1st experiment): 16 µg/mL (≈ 53.4 µM)
MBC ([7]; 2nd experiment): 8 µg/mL (≈ 26.7 µM)
